The test has as its target T1, HDM2 (Homo sapiens, UniProt Q00987).
T1 construct: Thioredoxin (N); made in house; host or cells: E. coli BL21(DE3)Rosetta (pET32a)
The experiment in a line: HDM2 FRET assay (inhibition of p53 peptide binding to HDM2). Particulars: truncated HDM2 residues 17 to 125, 0.5 nM HDM2, 3 nM FITC labeled 8-mer peptide, two hour incubation. The source says:
Methods: An HDM2 FRET assay was developed to assess the compounds' inhibitory activity towards binding of p53 protein. A truncated version of HDM2 with residues 17 to 125 (containing p53 binding surface, Science (1994) 265, 346-355), with N-terminal His and Thioredoxin tag was generated in pET32a expression vector and expressed in E. coli strain BL21(DE3)Rosetta. Protein was purified using Ni-affinity chromatography, followed by size exclusion chromatography using Superdex 75 26/60 column. To assess inhibition of p53 binding to HDM2, a FITC labeled 8-mer peptide (sequence: Ac-Phe-Arg-Dpr-Ac6c-(6-Br)Trp-Glu-Glu-Leu-NH2; Anal Biochem. 2004 Aug. 1; 331(1):138-46) with strong affinity towards p53 binding pocket of HDM2 was used. The HDM2 assay buffer contained 1× Phosphate Buffered Saline (Invitrogen, Cat#14190), 0.01% BSA (Jackson ImmunoResearch, Cat#001-000-162), 0.01% Tween-20. In the 1× assay buffer recombinant HDM2 protein, peptide and Lumi4-Tb Cryptate-conjugate mouse anti-6×HIS antibody (cisbio, Cat#Tb61HISTLB) were added and transferred to ProxiPlate PLUS (PerkinElmer, Cat#6008269), containing compounds so that final DMSO concentration is 0.1%. Final concentrations of reagents in the assay wells are 0.5 nM HDM2, 0.25 nM anti HIS (Tb label) antibody and 3 nM peptide. After two hour incubation at room temperature in a humidified chamber plates were read on EnVision plate reader with the following settings: excitation: UV, […], two emission filters: 520 nm and 495 nm respectively. Ratio of em520/em495 was used to calculate % inhibition and to obtain IC50 with 4-parameter logistic equation.
IC50 DETERMINATIONS: Dose-response curves were plotted from the inhibition data, from 10 point serial dilutions of inhibitory compounds. Concentration of compound was plotted against em520/Cem495 ratio signal. To generate IC50 values, the dose-response curves were fitted to a standard sigmoidal curve and IC50 values were derived by nonlinear regression analysis. IC50 values in the above table are rounded to the nearest integer.

Structures are written as SMILES.

T1 sequence (Q00987 17-125): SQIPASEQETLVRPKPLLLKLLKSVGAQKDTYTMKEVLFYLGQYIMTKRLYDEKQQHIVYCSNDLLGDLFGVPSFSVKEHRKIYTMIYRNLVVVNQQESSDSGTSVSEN

One may read the IC50 as the concentration needed to halve the response being measured. A higher IC50 goes with lower potency. `COCCOc1cc(Cl)cc(-c2nc(-c3n[nH]c(=O)o3)nc3ncn(C[C@H]4CC[C@H](C)CC4)c23)c1` [Example 2.23, 5-{6-[3-chloro-5-(2-methoxyethoxy)phenyl]-7-[(trans-4-methylcyclohexyl)methyl]-7H-purin-2-yl}-1,3,4-oxadiazol-2(3H)-one] yielded a half-maximal inhibitory concentration (IC50) (Table 2) of 0.132 µM.
Under “Table 3”, `C[C@@H](Nc1nc(-c2noc(=O)[nH]2)nc2ncn(C[C@H]3CC[C@H](C(F)(F)F)CC3)c12)C1CCC1` [Example 3.1, 3-(6-{[(1R)-1-cyclobutylethyl]amino}-7-{[trans-4-(trifluoromethyl)cyclohexyl]methyl}-7H-purin-2-yl)-1,2,4-oxadiazol-5(4H)-one] came in with an IC50 of 0.116 µM.
Still for that read-out and setting: as for `O=c1[nH]c(-c2nc(-c3cccc(Cl)c3)c3c(ncn3C[C@H]3CC[C@H](C(F)(F)F)CC3)n2)no1` [Example 3.2, 3-[6-(3-chlorophenyl)-7-{[trans-4-(trifluoromethyl)cyclohexyl]methyl}-7H-purin-2-yl]-1,2,4-oxadiazol-5(4H)-one], the figure is 0.437 µM; as for `C[C@@H](Nc1nc(-c2noc(=O)[nH]2)nc2ncn(CC3CCC4(CC3)CC4)c12)C1CCC1` [Example 3.3, 3-[6-{[(1R)-1-cyclobutylethyl]amino}-7-(spiro[2.5]oct-6-ylmethyl)-7H-purin-2-yl]-1,2,4-oxadiazol-5(4H)-one], 1.43 µM; as for `C[C@@H](Nc1nc(C(=O)O)nc2ncn(CC3CCC4(CC3)CC4)c12)C1CCC1` [Example 3.4, 6-{[(1R)-1-cyclobutylethyl]amino}-7-(spiro[2.5]oct-6-ylmethyl)-7H-purine-2-carboxylic acid], 2.7 µM.
`C=C1CCC(Cn2cnc3nc(-c4noc(=O)[nH]4)nc(N[C@H](C)C4CCC4)c32)CC1` [Example 3.7, 3-(6-{[(1R)-1-cyclobutylethyl]amino}-7-[(4-methylidenecyclohexyl)methyl]-7H-purin-2-yl)-1,2,4-oxadiazol-5(4H)-one] showed an IC50 (Table 3) of 0.543 µM.
Turning to `C=C1CCC(Cn2cnc3nc(C(=O)O)nc(N[C@H](C)C4CCC4)c32)CC1` [Example 3.8, 6-{[(1R)-1-cyclobutylethyl]amino}-7-[(4-methylidenecyclohexyl)methyl]-7H-purine-2-carboxylic acid], the concentration for half-maximal inhibition (IC50) (Table 3) was determined as 0.677 µM.
Same read-out and setting: as for `CC([C@H]1CC[C@H](C)CC1)n1cnc2nc(-c3noc(=O)[nH]3)nc(N[C@H](C)C3CCC3)c21` (stereo partly drawn) [Example 3.18, 3-(6-{[(1R)-1-cyclobutylethyl]amino}-7-[1-(trans-4-methylcyclohexyl)ethyl]-7H-purin-2-yl)-1,2,4-oxadiazol-5(4H)-one], the figure is 0.017 µM.

The values are drawn from patent US9682978B2, “2,6,7 substituted purines as HDM2 inhibitors” (Merck Sharp & Dohme Corp., priority 2013, dated 2017).
